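Step 1: Grow cells in 96-well plates. Step 2: Expose to compound for 48 hours at 5 concentrations. Step 3: Interpolate endpoints linearly; if unreached, use highest concentration. GI50 marks 50% less growth. The concentration for full growth arrest is given as TGI.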
Tests used:
Experiment in all cases: NCI tumour cell line growth inhibition, 48 h
K-562 leukemia = tested on: K-562 leukemia
HCT-116 colon = tested on: HCT-116 colon
SF-539 CNS = tested on: SF-539 CNS
TK-10 renal = tested on: TK-10 renal
MOLT-4 leukemia = tested on: MOLT-4 leukemia
SF-295 CNS = tested on: SF-295 CNS
SNB-19 CNS = tested on: SNB-19 CNS
SK-OV-3 ovarian = tested on: SK-OV-3 ovarian
OVCAR-3 ovarian = tested on: OVCAR-3 ovarian
HS 578T breast = tested on: HS 578T breast
SK-MEL-5 melanoma = tested on: SK-MEL-5 melanoma
SW-620 colon = tested on: SW-620 colon
SNB-75 CNS = tested on: SNB-75 CNS
T-47D breast = tested on: T-47D breast
PC-3 prostate = tested on: PC-3 prostate
COLO 205 colon = tested on: COLO 205 colon
SK-MEL-28 melanoma = tested on: SK-MEL-28 melanoma
RPMI-8226 leukemia = tested on: RPMI-8226 leukemia
A549 NSCLC = tested on: A549 NSCLC
SN12C renal = tested on: SN12C renal
HCC-2998 colon = tested on: HCC-2998 colon
M14 melanoma = tested on: M14 melanoma
NCI-H23 lung = tested on: NCI-H23 lung
UACC-62 melanoma = tested on: UACC-62 melanoma
BT-549 breast = tested on: BT-549 breast
OVCAR-5 ovarian = tested on: OVCAR-5 ovarian
HCT-15 colon = tested on: HCT-15 colon
MCF7 breast = tested on: MCF7 breast
EKVX NSCLC = tested on: EKVX NSCLC
786-0 renal = tested on: 786-0 renal
SK-MEL-2 melanoma = tested on: SK-MEL-2 melanoma
UO-31 renal = tested on: UO-31 renal
SF-268 CNS = tested on: SF-268 CNS
MALME-3M melanoma = tested on: MALME-3M melanoma
KM12 colon = tested on: KM12 colon
LOX IMVI melanoma = tested on: LOX IMVI melanoma
NCI-H226 lung = tested on: NCI-H226 lung
IGROV1 ovarian = tested on: IGROV1 ovarian
OVCAR-8 ovarian = tested on: OVCAR-8 ovarian
RXF 393 renal = tested on: RXF 393 renal
SR leukemia = tested on: SR leukemia
UACC-257 melanoma = tested on: UACC-257 melanoma
OVCAR-4 ovarian = tested on: OVCAR-4 ovarian
ACHN renal = tested on: ACHN renal
NCI-H460 lung = tested on: NCI-H460 lung
CCRF-CEM leukemia = tested on: CCRF-CEM leukemia
HOP-62 NSCLC = tested on: HOP-62 NSCLC
U251 CNS = tested on: U251 CNS
NCI/ADR-RES ovarian = tested on: NCI/ADR-RES ovarian
DU-145 prostate = tested on: DU-145 prostate
HOP-92 NSCLC = tested on: HOP-92 NSCLC
CAKI-1 renal = tested on: CAKI-1 renal
HT29 colon = tested on: HT29 colon
A498 renal = tested on: A498 renal
MDA-MB-231 breast = tested on: MDA-MB-231 breast
MDA-MB-435 = tested on: MDA-MB-435
NCI-H522 lung = tested on: NCI-H522 lung
HL-60(TB) leukemia = tested on: HL-60(TB) leukemia

For `COc1cc(Nc2ncc3c(C)nc(-c4cccc(C(F)(F)F)c4)n3n2)cc(OC)c1OC`, which GI50 (K-562 leukemia) is on record?
The GI50 was 6.62 µM.

And the TGI (K-562 leukemia)?
Its TGI is 19.6 µM.

And the GI50 (HCT-116 colon)?
Its GI50 is 3.49 µM.

And the TGI (HCT-116 colon)?
The TGI was 6.73 µM.

What about the GI50 (SF-539 CNS) of the same compound?
Its GI50 is 3.98 µM.

And the TGI (SF-539 CNS)?
The TGI was 8.34 µM.

What about the GI50 (TK-10 renal) of the same compound?
The GI50 was 2.98 µM.

And the TGI (TK-10 renal)?
Its TGI is 6.19 µM.

What about the GI50 (MOLT-4 leukemia) of the same compound?
The GI50 was 6.85 µM.

And the TGI (MOLT-4 leukemia)?
The TGI was 15.4 µM.

What about the GI50 (SF-295 CNS) of the same compound?
The GI50 was 3.86 µM.

What about the TGI (SF-295 CNS) of the same compound?
The TGI was 8.15 µM.

And the GI50 (SNB-19 CNS)?
The GI50 was 4.64 µM.

And the TGI (SNB-19 CNS)?
The TGI was 8.51 µM.

What about the GI50 (SK-OV-3 ovarian) of the same compound?
Its GI50 is 2.24 µM.

And the TGI (SK-OV-3 ovarian)?
The TGI was 6.86 µM.

What about the GI50 (OVCAR-3 ovarian) of the same compound?
The GI50 was 4.28 µM.

And the TGI (OVCAR-3 ovarian)?
Its TGI is 7.72 µM.

And the GI50 (HS 578T breast)?
The GI50 was 3.77 µM.

What about the TGI (HS 578T breast) of the same compound?
Its TGI is 13.6 µM.

And the GI50 (SK-MEL-5 melanoma)?
Its GI50 is 3.32 µM.

What about the TGI (SK-MEL-5 melanoma) of the same compound?
Its TGI is 6.51 µM.

What about the GI50 (SW-620 colon) of the same compound?
Its GI50 is 3.72 µM.

And the TGI (SW-620 colon)?
The TGI was 7.62 µM.

And the GI50 (SNB-75 CNS)?
The GI50 was 3.09 µM.

What about the TGI (SNB-75 CNS) of the same compound?
Its TGI is 8.42 µM.

And the GI50 (T-47D breast)?
The GI50 was 2.95 µM.

What about the TGI (T-47D breast) of the same compound?
Its TGI is 6.58 µM.

What about the GI50 (PC-3 prostate) of the same compound?
Its GI50 is 4.32 µM.

And the TGI (PC-3 prostate)?
Its TGI is 10.6 µM.

And the GI50 (COLO 205 colon)?
The GI50 was 4.07 µM.

And the TGI (COLO 205 colon)?
The TGI was 7.49 µM.

And the GI50 (SK-MEL-28 melanoma)?
Its GI50 is 4.44 µM.

What about the TGI (SK-MEL-28 melanoma) of the same compound?
The TGI was 8.25 µM.

And the GI50 (RPMI-8226 leukemia)?
The GI50 was 6.45 µM.

And the TGI (RPMI-8226 leukemia)?
The TGI was 19.7 µM.

What about the GI50 (A549 NSCLC) of the same compound?
The GI50 was 3.51 µM.

And the TGI (A549 NSCLC)?
The TGI was 6.98 µM.

What about the GI50 (SN12C renal) of the same compound?
The GI50 was 3.54 µM.

And the TGI (SN12C renal)?
The TGI was 7.14 µM.

What about the GI50 (HCC-2998 colon) of the same compound?
The GI50 was 4.01 µM.

What about the TGI (HCC-2998 colon) of the same compound?
Its TGI is 7.86 µM.

What about the GI50 (M14 melanoma) of the same compound?
Its GI50 is 4.03 µM.

And the TGI (M14 melanoma)?
Its TGI is 8.07 µM.

And the GI50 (NCI-H23 lung)?
Its GI50 is 4.07 µM.

And the TGI (NCI-H23 lung)?
The TGI was 8.61 µM.

And the GI50 (UACC-62 melanoma)?
The GI50 was 3.15 µM.

What about the TGI (UACC-62 melanoma) of the same compound?
The TGI was 6.34 µM.

What about the GI50 (BT-549 breast) of the same compound?
Its GI50 is 4.05 µM.

What about the TGI (BT-549 breast) of the same compound?
The TGI was 8.03 µM.

What about the GI50 (OVCAR-5 ovarian) of the same compound?
The GI50 was 3.65 µM.

What about the TGI (OVCAR-5 ovarian) of the same compound?
The TGI was 7.5 µM.

And the GI50 (HCT-15 colon)?
Its GI50 is 3.78 µM.

And the TGI (HCT-15 colon)?
The TGI was 8.2 µM.

What about the GI50 (MCF7 breast) of the same compound?
The GI50 was 4.14 µM.

What about the TGI (MCF7 breast) of the same compound?
The TGI was 7.82 µM.

And the GI50 (EKVX NSCLC)?
The GI50 was 4.19 µM.

And the TGI (EKVX NSCLC)?
Its TGI is 8 µM.

And the GI50 (786-0 renal)?
The GI50 was 3.96 µM.

What about the TGI (786-0 renal) of the same compound?
Its TGI is 7.92 µM.

And the GI50 (SK-MEL-2 melanoma)?
The GI50 was 3.25 µM.

And the TGI (SK-MEL-2 melanoma)?
Its TGI is 7.28 µM.

And the GI50 (UO-31 renal)?
Its GI50 is 1.82 µM.

And the TGI (UO-31 renal)?
Its TGI is 6.18 µM.

What about the GI50 (SF-268 CNS) of the same compound?
Its GI50 is 4.19 µM.

What about the TGI (SF-268 CNS) of the same compound?
The TGI was 8.1 µM.

What about the GI50 (MALME-3M melanoma) of the same compound?
The GI50 was 4.39 µM.

And the TGI (MALME-3M melanoma)?
Its TGI is 9.17 µM.

What about the GI50 (KM12 colon) of the same compound?
Its GI50 is 3.05 µM.

What about the TGI (KM12 colon) of the same compound?
The TGI was 6.23 µM.

And the GI50 (LOX IMVI melanoma)?
Its GI50 is 3.74 µM.

What about the TGI (LOX IMVI melanoma) of the same compound?
Its TGI is 7.58 µM.

What about the GI50 (NCI-H226 lung) of the same compound?
The GI50 was 4.14 µM.

And the TGI (NCI-H226 lung)?
Its TGI is 7.72 µM.

What about the GI50 (IGROV1 ovarian) of the same compound?
Its GI50 is 3.49 µM.

And the TGI (IGROV1 ovarian)?
Its TGI is 11.2 µM.

What about the GI50 (OVCAR-8 ovarian) of the same compound?
Its GI50 is 4.09 µM.

What about the TGI (OVCAR-8 ovarian) of the same compound?
The TGI was 8.91 µM.

And the GI50 (RXF 393 renal)?
The GI50 was 1.81 µM.

And the TGI (RXF 393 renal)?
The TGI was 5.42 µM.

What about the GI50 (SR leukemia) of the same compound?
Its GI50 is 6.36 µM.

And the TGI (SR leukemia)?
The TGI was 17.5 µM.

And the GI50 (UACC-257 melanoma)?
The GI50 was 3.88 µM.

What about the TGI (UACC-257 melanoma) of the same compound?
Its TGI is 7.46 µM.

And the GI50 (OVCAR-4 ovarian)?
Its GI50 is 4.48 µM.

What about the TGI (OVCAR-4 ovarian) of the same compound?
The TGI was 9.81 µM.

And the GI50 (ACHN renal)?
Its GI50 is 1.95 µM.

What about the TGI (ACHN renal) of the same compound?
Its TGI is 5.78 µM.

And the GI50 (NCI-H460 lung)?
Its GI50 is 4.46 µM.

What about the TGI (NCI-H460 lung) of the same compound?
The TGI was 13.6 µM.

And the GI50 (CCRF-CEM leukemia)?
The GI50 was 5.87 µM.

What about the TGI (CCRF-CEM leukemia) of the same compound?
Its TGI is 19 µM.

And the GI50 (HOP-62 NSCLC)?
The GI50 was 3.84 µM.

What about the TGI (HOP-62 NSCLC) of the same compound?
Its TGI is 7.51 µM.

What about the GI50 (U251 CNS) of the same compound?
Its GI50 is 3.71 µM.

And the TGI (U251 CNS)?
The TGI was 7.06 µM.

What about the GI50 (NCI/ADR-RES ovarian) of the same compound?
Its GI50 is 4.23 µM.

What about the TGI (NCI/ADR-RES ovarian) of the same compound?
Its TGI is 11 µM.

What about the GI50 (DU-145 prostate) of the same compound?
The GI50 was 3.13 µM.

What about the TGI (DU-145 prostate) of the same compound?
The TGI was 6.26 µM.

And the GI50 (HOP-92 NSCLC)?
Its GI50 is 1.74 µM.

And the TGI (HOP-92 NSCLC)?
The TGI was 5.99 µM.

What about the GI50 (CAKI-1 renal) of the same compound?
Its GI50 is 0.747 µM.

And the TGI (CAKI-1 renal)?
Its TGI is 13.6 µM.

What about the GI50 (HT29 colon) of the same compound?
The GI50 was 4.15 µM.

What about the TGI (HT29 colon) of the same compound?
The TGI was 7.69 µM.

And the GI50 (A498 renal)?
The GI50 was 0.305 µM.

And the TGI (A498 renal)?
Its TGI is 5.86 µM.

What about the GI50 (MDA-MB-231 breast) of the same compound?
The GI50 was 3.33 µM.

What about the TGI (MDA-MB-231 breast) of the same compound?
Its TGI is 6.97 µM.

What about the GI50 (MDA-MB-435) of the same compound?
The GI50 was 2.58 µM.

What about the TGI (MDA-MB-435) of the same compound?
The TGI was 5.78 µM.

And the GI50 (NCI-H522 lung)?
Its GI50 is 4.18 µM.

And the TGI (NCI-H522 lung)?
The TGI was 8.12 µM.

What about the GI50 (HL-60(TB) leukemia) of the same compound?
The GI50 was 6.91 µM.

What about the TGI (HL-60(TB) leukemia) of the same compound?
The TGI was 16 µM.
